# Data as given in publication PMC3057979 (PLoS ONE, 2011).
# Where no end group is shown, it is not given here.
# Tests used:
# [1] = system: CD4^+ T cells of recombinant protein vaccinated C57BL/6 mice; assay type: cell-based
# [2] = system: CD4^+ T cells of PI-WCV vaccinated C57BL/6 mice; details: 20 h
# [3] = system: CD4^+ T cells of C. burnetii RSA 439 infected C57BL/6 mice; assay type: cell-based
# [4] = target: T1, H-2 I-A^b (purified IA^b MHC class II) (Mus musculus, UniProt P14434+P14483); test: biochemical; assay type: binding
# T1 construct: endogenous in cells; host or cells: mouse B-cell lymphoma LB27.4
# T1 sequence (P14434 24-256): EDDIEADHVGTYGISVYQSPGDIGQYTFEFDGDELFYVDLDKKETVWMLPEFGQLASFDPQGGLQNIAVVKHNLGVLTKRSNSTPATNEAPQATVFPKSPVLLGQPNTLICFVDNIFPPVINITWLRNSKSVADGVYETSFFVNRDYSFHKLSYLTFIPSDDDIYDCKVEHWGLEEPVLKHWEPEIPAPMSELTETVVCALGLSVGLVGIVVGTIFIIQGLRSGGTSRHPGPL
# T1 sequence (P14483 28-265): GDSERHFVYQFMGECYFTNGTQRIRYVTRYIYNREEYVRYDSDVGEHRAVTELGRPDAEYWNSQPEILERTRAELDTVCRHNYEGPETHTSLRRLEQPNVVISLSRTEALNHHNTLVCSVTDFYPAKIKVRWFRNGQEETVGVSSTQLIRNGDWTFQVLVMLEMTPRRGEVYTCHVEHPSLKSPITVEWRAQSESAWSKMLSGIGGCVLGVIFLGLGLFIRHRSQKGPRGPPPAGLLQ
# [5] = system: IgG antibody production against CBU 0383, CBU 1157, CBU 1910; design: species or system C57BL/6 mice; details: mouse, in vivo
Sequence,SI-rAgs [1],SI-WCV vaccination [2],SI-Infection [3],IC50 [4],IgG antibodies against recombinant proteins after peptide immunization alone [5]
AKKLFNDPASPVAGN [CBU191081-95],4.8,0.63±0.31,0.79±0.44,–,–
DLPAAIVDAIAPQEG [CBU1645138-152],3,0.80±0.62,0.67±0.34,–,–
DLRYHAPIYGAVHPR [CBU 1157_177–191],–,3.67±1.53,–,0.193 µM,–
ENAKKLFNDPASPVA [CBU191079-93],5.6,0.93±0.84,0.93±0.35,–,–
HYLVNHPEVLVEASQ [CBU 1910_45–59],–,23.77±13.0,–,0.293 µM,–
IRNKLKIQATINNAK [CBU038398-112],2.22,1.07±0.51,0.43±0.57,–,–
IRRLVGSFPAEERIG [CBU1645270-284],2.7,3.10±1.15,1.53±0.74,–,–
KLFNDPASPVAGNPH [CBU 1910_83–97],–,3.67±1.12,–,0.351 µM,–
LSLMLNYPNSADRYY [CBU 1157_108–122],–,4.83±2.44,–,1.04 µM,–
PWRYIRSFPILASSG [CBU 1157_63–77],–,6.80±1.25,–,0.034 µM,–
RDSFNNFDASIISKY [CBU 0383_69–83],–,5.33±3.10,–,0.507 µM,–
RGPWRYIRSFPILAS [CBU115761-75],7.17,1.87±1.67,0.57±0.34,–,–
RLVGSFPAEERIGRT [CBU 1645_272–286],–,3.50±0.96,–,1.86 µM,–
RNNYRDSFNNFDASI [CBU038365-79],3.06,5.57±1.79,3.25±2.21,–,–
RYHAPIYGAVHPRWL [CBU1157179-193],4.37,1.97±0.75,2.37±1.05,–,–
RYPNEPSRFEPKHID [CBU164510-24],2.38,2.03±1.27,1.56±1.29,–,–
VHHYLVNHPEVLVEA [CBU 1910_43–57],15.9,22.73±12.51,28.27±9.54,–,did not generate detectable antibodies
YDSLTTPTASVCQSE [CBU 1645_196–210],–,4.13±1.01,–,0.62 µM,–
YIWHFVDGHPIQNQW [CBU0383127-141],16.22,1.33±1.43,0.79±0.28,–,–
YVYDSLTTPTASVCQ [CBU1645194-208],6,0.67±0.25,0.43±0.17,–,–
